Reference: publication PMC8704432, “Isolation, Structure Determination of Sesquiterpenes from Neurolaena lobata and Their Antiproliferative, Cell Cycle Arrest-Inducing and Anti-Invasive Properties against Human Cervical Tumor Cells” (Pharmaceutics, 2021)
Read-outs that look alike come from different tables or passages of the source.

What was measured:
[1] = test system: HeLa (HPV 18+) human cervical cell line; experiment: Antiproliferative MTT assay, HeLa; assay type: cell-based; conditions: for inhibition at 10 µM / inhibition at 30 µM: read-out: Growth Inhibition Values (%) ± SEM; for IC50: read-out: Calculated IC50 Values (μM) [95% CI]
Protocol: (§1) Antiproliferative effect of the isolated compounds were determined in vitro using SiHa (HPV 16+), HeLa (HPV 18+), C33A (HPV negative) human cervical cell lines, NIH-3T3 mouse embryonic and MRC-5 human fibroblast cells by means of MTT ([3-(4,5-dimethylthiazol-2-yl)-2,5-diphenyltetrazolium bromide]) assay. Briefly, a limited number of human cancer cells (5000/well for SiHa and HeLa cells, 10,000/well in case of C33A cells) were seeded onto a 96-well microplate and became attached to the bottom of the well overnight. On the second day of the procedure, the test substances were added in two concentrations (10.0 and 30.0 µM) in order to obtain preliminary data and then the compounds were applied in serial dilution (applied final concentrations were: 0.1, 0.3, 1.0, 3.0, 10.0, 30.0 µM). Further details of the experiment were described in ref. [30]. All in vitro experiments were carried out on two 96-well dishes with at least five parallel wells [31].

[2] = test system: C33A (HPV negative) human cervical cell line; experiment: Antiproliferative MTT assay, C33A; assay type: cell-based; conditions: for inhibition at 10 µM / inhibition at 30 µM: read-out: Growth Inhibition Values (%) ± SEM
Protocol: as §1

[3] = test system: NIH/3T3 (mouse embryonic fibroblast); experiment: Antiproliferative MTT assay, NIH/3T3; assay type: cell-based
Protocol: as §1

[4] = test system: SiHa (HPV 16+) human cervical cell line; experiment: Antiproliferative MTT assay, SiHa; assay type: cell-based; conditions: for inhibition at 10 µM / inhibition at 30 µM: read-out: Growth Inhibition Values (%) ± SEM; for IC50: read-out: Calculated IC50 Values (μM) [95% CI]
Protocol: as §1

MRC-5 (human fibroblast) = experiment: Antiproliferative MTT assay, MRC-5; assay type: cell-based
Protocol: as §1

[5] = test system: GLC4 human small cell lung carcinoma; set-up: method as in PMID 8657743; conditions: GLC4 cells; read-out: IC50 (cytotoxicity); cited from earlier work
[6] = test system: COLO 320 human colorectal cancer cells; set-up: method as in PMID 8657743; conditions: COLO 320 cells; read-out: IC50 (cytotoxicity); cited from earlier work
SiHa cells [7] = experiment: Cell cycle analysis by flow cytometry; assay type: cell-based, human; conditions: 48 or 72 h treatment
Protocol: Cell cycle analysis was performed as described in [32, 33].

SiHa cells [8] = experiment: Wound healing assay; assay type: cell-based, human
Protocol: In order to assess antimetastatic activity of the tested compound, wound healing assay was performed. The assay was done with specific wound healing assay chambers (Ibidi GmbH, Gräfelfing, Germany). SiHa cells were collected and 35,000 cells were seeded into both chambers of the insert. Cells were let to be attached to the plate surface during an overnight incubation at 37 °C in 5% CO2 atmosphere and then the inserts were removed. Cell debris was removed by a washing step with PBS. Test compounds were added to the wells in increasing concentrations in 2% FBS containing medium for 24 and 48 h. Migration of the cells into the wound site was visualized by phase-contrast inverted microscope (Axiovert 40, Zeiss, Thornwood, NY, USA). Images were taken with CCD camera at definite intervals and the migration of the cells was calculated as the ratio of wound closure by ImageJ software.

[9] = Homo sapiens, C-33-A, read-out: Calculated IC50 Values (μM) [95% CI], C33A, MTT
[10] = Mus musculus, NIH3T3, NIH/3T3, MTT, read-out: Calculated IC50 Values (μM) [95% CI]
[11] = Mus musculus, NIH3T3, NIH/3T3, 10 μM, MTT, read-out: Growth Inhibition Values (%) ± SEM
[12] = Mus musculus, NIH3T3, NIH/3T3, 30 μM, MTT, read-out: Growth Inhibition Values (%) ± SEM
[13] = Homo sapiens, MRC5, MRC-5, MTT, read-out: Calculated IC50 Values (μM) [95% CI]
[14] = Homo sapiens, MRC5, MRC-5, 10 μM, MTT, read-out: Growth Inhibition Values (%) ± SEM
[15] = Homo sapiens, MRC5, MRC-5, 30 μM, MTT, read-out: Growth Inhibition Values (%) ± SEM
[16] = read-out: Calculated IC50 Values (μM) [95% CI], C33A, MTT
[17] = NIH/3T3, MTT, read-out: Calculated IC50 Values (μM) [95% CI]
[18] = MRC-5, MTT, read-out: Calculated IC50 Values (μM) [95% CI]
[19] = Mus musculus, NIH3T3, read-out: Growth Inhibition Values (%) ± SEM
[20] = Homo sapiens, MRC5, read-out: Growth Inhibition Values (%) ± SEM

Compound | inhibition at 10 µM ([1]; Homo sapiens, 10 μM) [%] | inhibition at 30 µM ([1]; Homo sapiens, 30 μM) [%] | IC50 ([1]; Homo sapiens) [µM] | IC50 [2, 9] [µM] | inhibition at 10 µM ([2]; Homo sapiens, C-33-A) [%] | inhibition at 30 µM ([2]; Homo sapiens, C-33-A) [%] | inhibition at 10 µM ([4]; Homo sapiens, 10 μM) [%] | inhibition at 30 µM ([4]; Homo sapiens, 30 μM) [%] | IC50 ([4]; Homo sapiens) [µM] | other results
C=C1C(=O)O[C@@H]2/C=C(/C)C3=CC(=O)[C@](C)(O3)[C@H](OC(=O)CC(C)C)[C@@H](O)[C@@H]12 [Compound 3, 8β-hydroxy-9α-isovaleroyloxyatripliciolide] | 91.42 ± 0.34 | 96.6 ± 1.17 | 4.76 | 6.82 | 79.2 ± 3.33 | 94.46 ± 0.21 | 60.6 ± 1.58 | 78.8 ± 1.23 | 7.81 | IC50 [3, 10]: 4.12 µM; inhibition at 10 µM [3, 11]: 92.96 ± 0.56%; inhibition at 30 µM [3, 12]: 98.15 ± 0.13%; IC50 (MRC-5 (human fibroblast); [13]): 6.67 µM; inhibition at 10 µM (MRC-5 (human fibroblast); [14]): 88.1 ± 1.22%; inhibition at 30 µM (MRC-5 (human fibroblast); [15]): 97.58 ± 0.1%
C=C1C(=O)O[C@@H]2C[C@@H](C)/C=C\C(=O)[C@@](C)(O)[C@H](OC(C)=O)[C@@H](OC(=O)CC(C)C)[C@@H]12 [Neu B, neurolenin B, reference compound] | 94 ± 0.59 | 94.81 ± 0.37 | < 1.4 | – | 98.29 ± 0.03 | 97.91 ± 0.15 | 88.73 ± 0.36 | 93.42 ± 0.33 | < 1.4 | IC50 [1]: 1.24 µM; IC50 [2, 16]: < 1.4 µM; IC50 [3, 10]: < 1.4 µM; inhibition at 10 µM [3, 11]: 98.11 ± 0.09%; inhibition at 30 µM [3, 12]: 98.02 ± 0.05%; IC50 [3, 17]: 1.31 µM; IC50 [5]: 1.1 µM; IC50 [4]: 1.33 µM; IC50 [6]: 1.2 µM; IC50 (MRC-5 (human fibroblast); [13]): 5.18 µM; inhibition at 10 µM (MRC-5 (human fibroblast); [14]): 94.26 ± 0.23%; inhibition at 30 µM (MRC-5 (human fibroblast); [15]): 97.46 ± 0.21%
C=C1C(=O)OC2C=C(C)C(OC(C)=O)CC3OC3(C)CC(OC(=O)CC(C)C)C12 (centres unmarked) [Compound 6, Lobatolide C] | < 20 | 91.9 ± 1.23 | 15.7 | 3.2 to 3.6 | 96.55 ± 0.22 | 96.72 ± 0.33 | 84.2 ± 2.32 | 84.8 ± 1.89 | 3.2 to 3.6 | IC50 [2, 16]: 3.53 µM; IC50 [3, 10]: > 11 µM; inhibition at 10 µM [3, 11]: 40.7 ± 2.92%; inhibition at 30 µM [3, 12]: 96.8 ± 0.25%; IC50 [3, 17]: 11.2 µM; IC50 [4]: 3.24 µM; Cell cycle distribution (SiHa cells [7]): significant concentration-dependent accumulation of cells in the S phase; IC50 (MRC-5 (human fibroblast); [13]): > 11 µM; inhibition at 10 µM (MRC-5 (human fibroblast); [14]): < 20%; inhibition at 30 µM (MRC-5 (human fibroblast); [15]): 73 ± 1.64%; IC50 (MRC-5 (human fibroblast); [18]): 11.9 µM; Wound closure (SiHa cells [8]; 1.5 µM, 48 h (control 70%)): 47%; Wound closure (SiHa cells [8]; 3 µM, 24 h (control 30%)): 12%; Wound closure (SiHa cells [8]; 3 µM, 48 h (control 70%)): 18%
CC(C)[C@@H]1CC[C@@]2(C)C(=O)CCC(CO)=C[C@@H]12 [Compound 10, (+)-aphanamol I] | < 20 | 36.5 ± 1.55 | – | – | < 20 | < 20 | < 20 | < 20 | – | –
COC[C@H]1C(=O)O[C@@H]2C[C@@H](C)/C=C\C(=O)[C@](C)(O)[C@H](OC(C)=O)[C@@H](OC(=O)CC(C)C)[C@H]21 [Compound 5, Lobatolide B] | < 20 | 63.9 ± 3.23 | – | – | 50.5 ± 3.49 | 90 ± 1.4 | < 20 | 65.5 ± 2.52 | – | –
C=C1C(=O)O[C@@H]2/C=C(/C)C3=CC(=O)[C@](C)(O3)[C@H](OC(C)=O)[C@@H](OC(=O)CC(C)C)[C@@H]12 [Compound 4, Lobatin C] | 83.9 ± 1.8 | 90.1 ± 1.03 | 5.1 | 2.05 | 97.27 ± 0.18 | 97.19 ± 0.41 | 79.8 ± 1.47 | 94.62 ± 0.27 | 2.22 | –
N.N.[Cl][Pt][Cl] [Cispl., cisplatin, reference compound] | – | – | – | – | – | – | – | – | – | Growth Inhibition Values (%) ± SEM ([1]; 10 μM): 32.23 ± 1.16%; Growth Inhibition Values (%) ± SEM ([1]; 30 μM): 93.70 ± 0.82%; IC50 [1]: 12.1 µM; Growth Inhibition Values (%) ± SEM ([2]; C33A, 10 μM, MTT): 77.17 ± 1.21%; Growth Inhibition Values (%) ± SEM ([2]; C33A, 30 μM, MTT): 97.50 ± 0.13%; IC50 ([2]; C33A, MTT, read-out: Calculated IC50 Values (μM) [95% CI]): 5.85 µM; Growth Inhibition Values (%) ± SEM ([3]; NIH/3T3, 10 μM, MTT): 73.88 ± 0.46%; Growth Inhibition Values (%) ± SEM ([3]; NIH/3T3, 30 μM, MTT): 97.10 ± 0.15%; IC50 [3, 17]: 5.5 µM; Growth Inhibition Values (%) ± SEM ([4]; 10 μM): 60.98 ± 0.92%; Growth Inhibition Values (%) ± SEM ([4]; 30 μM): 88.95 ± 0.53%; IC50 [4]: 4.29 µM; Growth Inhibition Values (%) ± SEM (MRC-5 (human fibroblast); MRC-5, 30 μM, MTT): 70.65 ± 1.34%; IC50 (MRC-5 (human fibroblast); [18]): 5.77 µM
C=C1CC[C@@H](O)[C@]2(C)CC[C@@H](C(C)C)[C@H](O)[C@@H]12 [Compound 9, Volenol] | < 20 | 37.3 ± 2.65 | – | – | < 20 | 26.7 ± 2.73 | < 20 | 35.7 ± 1.29 | – | –
C=C1C(=O)O[C@@H]2[C@@H](CC3=C4[C@@H](C[C@@H](C)/C=C\C(=O)[C@](C)(O)[C@H](OC(C)=O)[C@H]4OC(=O)CC(C)C)OC3=O)[C@@H](C)C3=CC(=O)[C@](C)(O3)[C@H](O)[C@@H](OC(=O)CC(C)C)[C@@H]12 [Compound 7, Lobatolide D] | 91.87 ± 0.72 | 96.44 ± 0.1 | 6 | 6.62 | 94.66 ± 0.19 | 95.18 ± 0.31 | 77.2 ± 1.04 | 93.5 ± 0.42 | 6.02 | IC50 ([3]; Mus musculus, NIH3T3, read-out: Calculated IC50 Values (μM) [95% CI]): 5.68 µM; inhibition at 10 µM [3, 19]: 90.7 ± 1.2%; inhibition at 30 µM [3, 19]: 98.06 ± 0.19%; IC50 (MRC-5 (human fibroblast); Homo sapiens, MRC5, read-out: Calculated IC50 Values (μM) [95% CI]): 15.4 µM; inhibition at 10 µM (MRC-5 (human fibroblast); [20]): < 20%; inhibition at 30 µM (MRC-5 (human fibroblast); [20]): 97.63 ± 0.27%
C=C1C(=O)O[C@@H]2C[C@@H](C)C3=CC(=O)[C@](C)(O3)[C@H](OC(=O)CC(C)C)[C@@H](O)[C@@H]12 [Compound 1, 8β-Hydroxy-9α-isovaleroyloxycalyculatolide] | 20.4 ± 0.62 | 81.8 ± 1.7 | 16.8 | 5.89 | 90 ± 2.54 | 91.79 ± 0.22 | 77.93 ± 0.56 | 92.1 ± 0.73 | 4.86 | –
COC[C@@H]1C(=O)O[C@@H]2C[C@@H](C)C3=CC(=O)[C@](C)(O3)[C@H](O)[C@@H](OC(=O)CC(C)C)[C@@H]12 [Compound 2, Lobatolide A] | < 20 | 21.6 ± 2.42 | – | – | < 20 | 36.6 ± 2.95 | < 20 | < 20 | – | –
C=C1C(=O)O[C@@H]2/C=C(/C)C3=CC(=O)[C@](C)(O3)[C@H](O)[C@@H](OC(=O)CC(C)C)[C@@H]12 [Lobatin B] | – | – | – | – | – | – | – | – | – | IC50 [5]: 0.6 µM; IC50 [6]: 1.1 µM
